One assay concerns HCV genotype 1b replicon. Kind of assay: HCV replicon assay, genotype 1b replicon EC50. In kind it is cell-based, Hepatitis C virus. The note with it: read-out: EC50 [gt-1b]. In short, it runs like this:
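Potency comes from a four-parameter fit of signal as percent of DMSO control. Replicon-bearing cells were treated 24-48 hours with a compound dilution series in absence of G418, and replicon RNA was quantified normalized to cyclophilin A RNA, or luciferase read.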
A general note: A replicon is a self-replicating genome or part of one, used to study replication in cells.

Assay [1] deals with HCV NS3/4A protease genotype 1b (Hepatitis C virus genotype 1b, UniProt P26663). Kind of assay: HCV NS3/4A protease time-resolved fluorescence (TRF) assay, Ki against genotype 1b. In kind it is biochemical. In a few lines: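 Ki values come from IC50 fits corrected for substrate concentration and KM. The time-resolved fluorescence protease reaction used 25 nM peptide substrate, 2.5 h, room temperature, pH 7.5 HEPES buffer, after 30 min enzyme–inhibitor preincubation.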
Chain of HCV NS3/4A protease genotype 1b (P26663 1027-1657): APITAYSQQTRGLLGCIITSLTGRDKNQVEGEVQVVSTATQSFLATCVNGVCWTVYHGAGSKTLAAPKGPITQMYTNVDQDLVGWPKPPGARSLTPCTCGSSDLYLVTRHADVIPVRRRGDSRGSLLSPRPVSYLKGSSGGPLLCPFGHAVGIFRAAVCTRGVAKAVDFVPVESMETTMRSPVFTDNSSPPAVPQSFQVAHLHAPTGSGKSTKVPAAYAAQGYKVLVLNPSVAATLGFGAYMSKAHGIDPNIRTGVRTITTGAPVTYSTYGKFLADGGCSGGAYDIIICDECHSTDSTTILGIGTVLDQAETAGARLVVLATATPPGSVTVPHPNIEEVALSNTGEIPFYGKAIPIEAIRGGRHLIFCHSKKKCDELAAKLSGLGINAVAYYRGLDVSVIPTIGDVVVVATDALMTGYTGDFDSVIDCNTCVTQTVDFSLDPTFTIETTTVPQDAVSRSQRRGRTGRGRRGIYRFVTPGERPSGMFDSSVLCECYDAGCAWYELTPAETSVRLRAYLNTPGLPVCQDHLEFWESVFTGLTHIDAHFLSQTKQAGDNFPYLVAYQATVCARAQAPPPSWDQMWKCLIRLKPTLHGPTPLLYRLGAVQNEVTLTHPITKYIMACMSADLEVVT
Chain of HCV NS3/4A protease genotype 1b (P26663 1658-1711): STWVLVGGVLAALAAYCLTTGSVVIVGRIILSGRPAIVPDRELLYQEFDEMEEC

The mark [2] stands for this setting: Hepatitis C virus, genotype 1b replicon, K+ salt.
The mark [3] stands for this setting: IC50 [gt-1b] (nM), NS3/4A genotype 1b, enzyme 0.2 nM, K+ salt.
Where [4] appears, read: Hepatitis C virus, HCV replicon, genotype 1b.
[5] abbreviates: IC50 [gt-1b], NS3/4A protease TRF assay, genotype 1b enzyme 0.2 nM.

Read-outs that look alike come from different tables or passages of the source.

For orientation: EC50 means the concentration that produces a half-maximal response. By IC50 is commonly meant the midpoint of a concentration-inhibition curve.

Take `COc1ccc2nc(C)c3c(c2c1)[C@H](F)C[C@]1(C[C@H]2C(=O)N[C@]4(C(=O)NS(=O)(=O)C5(C)CC5)C[C@H]4/C=C\CCCCC[C@H](NC(=O)O[C@H](C)C(C)C)C(=O)N2C1)O3` [Example 356, (2R)-3-methylbutan-2-yl [(1′R,2S,6S,12Z,13aS,14aR,16aS)-1′-fluoro-9′-methoxy-5′-methyl-14a-{[(1-methylcyclopropyl)sulfonyl]carbamoyl}-5,16-dioxo-1,1′,2′,5,6,7,8,9,10,11,13a,14,14a,15,16,16a-hexadecahydrospiro[cyclopropa[e]pyrrolo[1,2-a][1,4]diazacyclopentadecine-2,3′-pyrano[2,3-c]quinolin]-6-yl]carbamate]: the EC50 in the assay with HCV genotype 1b replicon (setting [2]) is 3.73 nM. Besides, the IC50 in assay [1] (setting [3]) stood at 0.012 nM.
The matching figures for `COc1ccc2nc(C)c3c(c2c1)[C@H](F)C[C@]1(C[C@H]2C(=O)N[C@]4(C(=O)NS(=O)(=O)C5(C)CC5)C[C@H]4/C=C\CCCCC[C@H](NC(=O)O[C@@H](C)C(C)C)C(=O)N2C1)O3` [Example 357, (2S)-3-methylbutan-2-yl [(1′R,2S,6S,12Z,13aS,14aR,16aS)-1′-fluoro-9′-methoxy-5′-methyl-14a-{[(1-methylcyclopropyl)sulfonyl]carbamoyl}-5,16-dioxo-1,1′,2′,5,6,7,8,9,10,11,13a,14,14a,15,16,16a-hexadecahydrospiro[cyclopropa[e]pyrrolo[1,2-a][1,4]diazacyclopentadecine-2,3′-pyrano[2,3-c]quinolin]-6-yl]carbamate]: 2.91 nM and 0.01 nM.
Consider `COc1ccc2nc(C)c3c(c2c1)[C@H](F)C[C@]1(C[C@H]2C(=O)N[C@]4(C(=O)NS(=O)(=O)C5(C)CC5)C[C@H]4/C=C\CCCCC[C@H](NC(=O)O[C@@H](C)C(C)C)C(=O)N2C1)O3` [Example 358, (2S)-3-methylbutan-2-yl [(1′R,2S,6S,12Z,13aS,14aR,16aS)-1′-fluoro-9′-methoxy-5′-methyl-14a-{[(1-methylcyclopropyl)sulfonyl]carbamoyl}-5,16-dioxo-1,1′,2′,5,6,7,8,9,10,11,13a,14,14a,15,16,16a-hexadecahydrospiro[cyclopropa[e]pyrrolo[1,2-a][1,4]diazacyclopentadecine-2,3′-pyrano[2,3-c]quinolin]-6-yl]carbamate], for which the EC50 in the assay on HCV genotype 1b replicon (Hepatitis C virus, HCV replicon, genotype 1b, K+ salt) was 42.8 nM. In addition, the IC50 in assay [1] (IC50 [gt-1b], NS3/4A protease TRF assay, genotype 1b enzyme 0.2 nM, K+ salt) worked out at 0.172 nM.
For the molecule `Cc1nc2ccccc2c2c1O[C@]1(CC2)C[C@H]2C(=O)N[C@]3(C(=O)NS(=O)(=O)C4(C)CC4)C[C@H]3/C=C\CCCCC[C@H](Nc3ncccn3)C(=O)N2C1` [Example 359, (2R,6S,12Z,13aS,14aR,16aS)-5′-methyl-N-[(1-methylcyclopropyl)sulfonyl]-5,16-dioxo-6-(pyrimidin-2-ylamino)-1,1′,2′,6,7,8,9,10,11,13a,14,15,16,16a-tetradecahydrospiro[cyclopropa[e]pyrrolo[1,2-a][1,4]diazacyclopentadecine-2,3′-pyrano[2,3-c]quinoline]-14a(5H)-carboxamide], the concentration giving a half-maximal response (EC50) with HCV genotype 1b replicon (setting [4]) came out at 205 nM. The molecule further came in with an IC50 in assay [1] (setting [5]) of 0.4 nM.
For the molecule `Cc1nc2ccccc2c2c1O[C@]1(CC2)C[C@H]2C(=O)N[C@]3(C(=O)NS(=O)(=O)C4(C)CC4)C[C@H]3/C=C\CCCCC[C@H](Nc3nccs3)C(=O)N2C1` [Example 360, (2R,6S,12Z,13aS,14aR,16aS)-5′-methyl-N-[(1-methylcyclopropyl)sulfonyl]-5,16-dioxo-6-(1,3-thiazol-2-ylamino)-1,1′,2′,6,7,8,9,10,11,13a,14,15,16,16a-tetradecahydrospiro[cyclopropa[e]pyrrolo[1,2-a][1,4]diazacyclopentadecine-2,3′-pyrano[2,3-c]quinoline]-14a(5H)-carboxamide], the EC50 in the assay with HCV genotype 1b replicon (setting [4]) was 140 nM. In assay [1] (setting [5]), this molecule showed an IC50 of 0.143 nM.
As for `COc1ccc2nc(C)c3c(c2n1)CC[C@]1(C[C@H]2C(=O)N[C@]4(C(=O)NS(=O)(=O)C5(C)CC5)C[C@H]4/C=C\CCCCC[C@H](NC(=O)OCC(C)C)C(=O)N2C1)O3` [Example 362, 2-methylpropyl [(2R,6S,12Z,13aS,14aR,16aS)-2′-methoxy-6′-methyl-14a-{[(1-methylcyclopropyl)sulfonyl]carbamoyl}-5,16-dioxo-1,5,6,7,8,9,9′,10,10′,11,13a,14,14a,15,16,16a-hexadecahydrospiro[cyclopropa[e]pyrrolo[1,2-a][1,4]diazacyclopentadecine-2,8′-pyrano[2,3-c][1,5]naphthyridin]-6-yl]carbamate], the 50% effective concentration (EC50) with HCV genotype 1b replicon (setting [4]) stood at 4.07 nM. In addition, in assay [1] (setting [5]), half-maximal inhibition (IC50) was put at 0.008 nM.
On the same counts, the results for `COc1ccc2nc(C)c3c(c2n1)CC[C@]1(C[C@H]2C(=O)N[C@]4(C(=O)NS(=O)(=O)C5(C)CC5)C[C@H]4/C=C\CCCCC[C@H](NC(=O)OC4CCCC4)C(=O)N2C1)O3` [Example 363, cyclopentyl [(2R,6S,12Z,13aS,14aR,16aS)-2′-methoxy-6′-methyl-14a-{[(1-methylcyclopropyl)sulfonyl]carbamoyl}-5,16-dioxo-1,5,6,7,8,9,9′,10,10′,11,13a,14,14a,15,16,16a-hexadecahydrospiro[cyclopropa[e]pyrrolo[1,2-a][1,4]diazacyclopentadecine-2,8′-pyrano[2,3-c][1,5]naphthyridin]-6-yl]carbamate] are 8.16 nM and 0.011 nM.
With `COc1ccc2nc(C)c3c(c2n1)CC[C@]1(C[C@H]2C(=O)N[C@]4(C(=O)NS(=O)(=O)C5(C)CC5)C[C@H]4/C=C\CCCCC[C@H](NC(=O)OC4(C)CC4)C(=O)N2C1)O3` [Example 364, 1-methylcyclopropyl [(2R,6S,12Z,13aS,14aR,16aS)-2′-methoxy-6′-methyl-14a-{[(1-methylcyclopropyl)sulfonyl]carbamoyl}-5,16-dioxo-1,5,6,7,8,9,9′,10,10′,11,13a,14,14a,15,16,16a-hexadecahydrospiro[cyclopropa[e]pyrrolo[1,2-a][1,4]diazacyclopentadecine-2,8′-pyrano[2,3-c][1,5]naphthyridin]-6-yl]carbamate], in the assay with HCV genotype 1b replicon (setting [4]), the EC50 was determined as 5.46 nM. This molecule also yielded an IC50 in assay [1] (setting [5]) of 0.012 nM.
On the same counts, the results for `COc1ccc2nc(C)c3c(c2n1)CC[C@]1(C[C@H]2C(=O)N[C@]4(C(=O)NS(=O)(=O)C5(C)CC5)C[C@H]4/C=C\CCCCC[C@H](NC(=O)OC4(C)CCC4)C(=O)N2C1)O3` [Example 365, 1-methylcyclobutyl [(2R,6S,12Z,13aS,14aR,16aS)-2′-methoxy-6′-methyl-14a-{[(1-methylcyclopropyl)sulfonyl]carbamoyl}-5,16-dioxo-1,5,6,7,8,9,9′,10,10′,11,13a,14,14a,15,16,16a-hexadecahydrospiro[cyclopropa[e]pyrrolo[1,2-a][1,4]diazacyclopentadecine-2,8′-pyrano[2,3-c][1,5]naphthyridin]-6-yl]carbamate] are 4.93 nM and 0.02 nM.
Consider `COc1ccc2nc(C)c3c(c2c1)CC[C@]1(C[C@H]2C(=O)N[C@]4(C(=O)NS(=O)(=O)C5(C)CC5)C[C@H]4/C=C\CCCCC[C@H](NC(=O)OC(C(C)(C)C)C(F)(F)F)C(=O)N2C1)O3` (stereo partly drawn) [Example 366, 1,1,1-trifluoro-3,3-dimethylbutan-2-yl [(2R,6S,12Z,13aS,14aR,16aS)-9′-methoxy-5′-methyl-14a-{[(1-methylcyclopropyl)sulfonyl]carbamoyl}-5,16-dioxo-1,1′,2′,5,6,7,8,9,10,11,13a,14,14a,15,16,16a-hexadecahydrospiro[cyclopropa[e]pyrrolo[1,2-a][1,4]diazacyclopentadecine-2,3′-pyrano[2,3-c]quinolin]-6-yl]carbamate], for which the concentration for a half-maximal effect (EC50) in the assay with HCV genotype 1b replicon (setting [4]) came out at 6.46 nM. Further, in assay [1] (setting [5]), the IC50 was determined as 0.023 nM.
On to `COc1ccc2nc(C)c3c(c2c1)CC[C@]1(C[C@H]2C(=O)N[C@]4(C(=O)NS(=O)(=O)C5(C)CC5)C[C@H]4/C=C\CCCCC[C@H](NC(=O)OC(C(C)(C)C)C(F)(F)F)C(=O)N2C1)O3` (stereo partly drawn) [Example 367, 1,1,1-trifluoro-3,3-dimethylbutan-2-yl [(2R,6S,12Z,13aS,14aR,16aS)-9′-methoxy-5′-methyl-14a-{[(1-methylcyclopropyl)sulfonyl]carbamoyl}-5,16-dioxo-1,1′,2′,5,6,7,8,9,10,11,13a,14,14a,15,16,16a-hexadecahydrospiro[cyclopropa[e]pyrrolo[1,2-a][1,4]diazacyclopentadecine-2,3′-pyrano[2,3-c]quinolin]-6-yl]carbamate], for which the EC50 with HCV genotype 1b replicon (HCV replicon, genotype 1b) is 3.61 nM. In assay [1] (setting [5]), this molecule yielded an IC50 of 0.03 nM.
In the case of `CC(C)COC(=O)N[C@H]1CCCCC/C=C\[C@@H]2C[C@@]2(C(=O)NS(=O)(=O)C2(C)CC2)NC(=O)[C@@H]2C[C@]3(CCc4c(c(C(F)F)nc5ccc(Cl)cc45)O3)CN2C1=O` [Example 368, 2-methylpropyl [(2R,6S,12Z,13aS,14aR,16aS)-9′-chloro-5′-(difluoromethyl)-14a-{[(1-methylcyclopropyl)sulfonyl]carbamoyl}-5,16-dioxo-1,1′,2′,5,6,7,8,9,10,11,13a,14,14a,15,16,16a-hexadecahydrospiro[cyclopropa[e]pyrrolo[1,2-a][1,4]diazacyclopentadecine-2,3′-pyrano[2,3-c]quinolin]-6-yl]carbamate], the 50% effective concentration (EC50) in the assay with HCV genotype 1b replicon (setting [4]) was 9.68 nM. For the same molecule, in assay [1] (setting [5]), the IC50 turned out to be 0.017 nM.

For the origin of these results see US8987195B2 (priority 2012, dated 2015).
